Assay results reported in publication PMC6678097, “Machilin A Inhibits Tumor Growth and Macrophage M2 Polarization Through the Reduction of Lactic Acid” (Cancers, 2019).

Assays:
[1] = biological target: T1, purified recombinant LDHA (Homo sapiens, UniProt P00338); experiment: In vitro LDH activity assay with purified recombinant LDHA; type: biochemical
T1 construct: made in house
Procedure: A purification of recombinant LDHA was performed as described previously. LDH activity was determined by measuring the decrease of absorbance at 340 nm due to the oxidation of NADH in 20 mM HEPES-K^+, 0.05% bovine serum albumin (BSA), 20 μM NADH, and 2 mM pyruvate (Sigma-Aldrich, St. Louis, MO, USA) at a pH of 7.2 using a spectrofluorometer (Spectramax M2, Molecular Devices, San Jose, CA, USA; excitation 340 nm; emission 460 nm), as described previously. Ten nanograms of recombinant LDHA protein were used in the in vitro LDH activity assay. One microgram of total protein from cell or tissue lysates was used for intracellular or in vivo LDH assays.

LDHB = LDHB (Homo sapiens, UniProt P07195); experiment: LDHB activity (data not shown); type: biochemical; settings: concentrations of up to 500 μM
Chain of LDHB (P07195 whole entry, species assumed): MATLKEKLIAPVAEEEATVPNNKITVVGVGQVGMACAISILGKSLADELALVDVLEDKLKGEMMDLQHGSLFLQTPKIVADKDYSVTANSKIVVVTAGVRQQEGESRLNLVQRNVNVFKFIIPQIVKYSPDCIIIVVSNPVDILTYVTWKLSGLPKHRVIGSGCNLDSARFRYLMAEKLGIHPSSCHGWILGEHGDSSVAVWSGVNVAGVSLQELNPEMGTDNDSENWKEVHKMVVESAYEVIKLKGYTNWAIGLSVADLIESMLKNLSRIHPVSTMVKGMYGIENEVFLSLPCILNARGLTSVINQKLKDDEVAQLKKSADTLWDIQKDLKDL

[2] = system: HT29 colorectal cancer cells; experiment: Measurement of intracellular ATP; type: cell-based, human; settings: machilin A 30 μM, hypoxia
Procedure: Intracellular ATP concentration was measured using an ATP bioluminescent somatic cell assay kit (Sigma-Aldrich) as previously described. A total of 1 × 10^6 cells were trypsinized and resuspended in ultrapure water. Luminescence was measured using a spectrofluometer (Spectramax M2, Molecular Devices, CA, USA) immediately after the addition of an ATP enzyme mix to the cell suspension.

CT26 tumors = experiment: Tumor allograft model, CT26 cells; type: in vivo, BALB/c mice; settings: 1, 10, or 50 µg/g body weight intraperitoneally daily
Procedure: LLC and CT26 cells were suspended separately in PBS (5 × 10^5 cells/100 µL PBS) and inoculated in subcutaneously on the back of 7-week-old C57BL/6 mice and BALB/c mice respectively (Orient Bio Inc., Seongnam, Korea; n = 7). One day after the inoculation with tumor cells, mice of the control group (n = 7) were intraperitoneally administrated 100 µL of PBS per day for 18 days. Each of the MA-treated mice were intraperitoneally administrated 0.02, 0.2, or 1 mg MA, respectively, in 100 µL PBS per 20 g body weight, each day for 18 days. All mice were euthanized 19 days after inoculation with the tumor cells, and the tumors were excised and weighed. Length (l) and width (w) of each tumor were measured using a caliper, and the respective volume (V) was calculated according to the formula V = [(l × w^2)/2]. Tumors were immediately removed from euthanized mice and prepared for histological examinations. To test liver and kidney toxicity of MA, at the end of the in vivo allograft experiment blood was collected from each mouse and serum was separated. Biochemical analyses of aspartate aminotransferase (AST), alanine aminotransferase (ALT), creatinine, and blood urea nitrogen (BUN) were performed using a commercial service (Green Cross Co., Yongin, Korea). […]

[3] = system: RAW264.7 macrophage cells; experiment: M2 marker expression in macrophages treated with conditioned medium of MA-treated cancer cells; type: cell-based; settings: medium harvested from MA-treated (30 µM) cancer cells in hypoxic condition
Procedure: Total RNA of the cells was isolated using a GeneJET RNA Purification Kit (Thermo Fisher Scientific, Waltham, MA, USA). One microgram of RNA was reverse-transcribed using a RevertAid reverse transcriptase (Thermo Fisher Scientific, Waltham, MA, USA), and single-stranded cDNA was PCR-amplified using AccPower® PCR PreMix (Bioneer, Daejeon, Korea). The qRT-PCR was performed using the QuantiNova™ SYBR®Green PCR Kit (Qiagen, GmbH, Hilden, Germany) and a Qiagen Rotor-Gene® Q Real-Time PCR Detection System according to the manufacturer’s instructions. PCR products were separated using electrophoresis on 1.5% agarose gel containing ethidium bromide in 1 × Tris-acetate buffer and were visualized under UV light.
To investigate the formation of a capillary-like network of human umbilical vein endothelial cells (HUVECs) through the activation of tumor associated macrophages (TAMs) by lactate secreted by cancer cells, a tube formation assay was performed according to a previous study, with several modifications. For the preparation of conditioned media, HT29 colon cancer cells (3.5 × 10^5 cells) suspended in 2 mL of DMEM were seeded on 6-well plates, with or without addition of 30 µM MA, and incubated under normoxic or hypoxic conditions. […]

C[C@H](Cc1ccc2c(c1)OCO2)[C@@H](C)Cc1ccc2c(c1)OCO2 [MA, bis(3,4-methylenedioxy)-8,8’-lignan]
mode of inhibition of LDHA activity ([1]; data not shown): competitive inhibition | IC50 ([1]; purified recombinant LDHA, read-out: inhibitory concentration (IC50) for LDHA activity): 84 µM | effect on LDHB activity (LDHB): did not affect LDHB activity | increase of adenosine triphosphate (ATP) synthesis in hypoxic condition [2]: significantly reduced | volume, weight, and size of tumors (CT26 tumors): significantly reduced | Arg1, CD206, YM1, and VEGF expression in macrophages [3]: reduction of Arg1, CD206, YM1, and VEGF expression
